Measured values: patent publication US9574239B2, “MicroRNA signatures in human ovarian cancer” (The Ohio State University Research Foundation, priority 2007, dated 2017)

Assays:
Format in all cases: cell-based, human
OVCAR3 cells [1] = assay: miR expression by microarray profiling of OVCAR3 cells before and after demethylating treatment; settings: 10 μM, 24 h
Description: Total RNA isolation was performed with Trizol (Invitrogen, Carlsbad, Calif.) according to the manufacturer's instructions. RNA labeling and hybridization on microRNA microarray chips were performed as previously described (28) using 5 μg of total RNA from each sample. Hybridization was carried out on our microRNA microarray (Ohio State Comprehensive Cancer Center, version 2.0), which contains probes for 460 mature microRNAs spotted in quadruplicate (235 homo sapiens, 222 mus musculus, and three Arabidopsis thaliana) with annotated active sites. Often, more than one probe set exists for a given mature microRNA. Additionally, there are quadruplicate probes corresponding to most precursor microRNAs. Hybridization signals were detected with Streptavidin-Alexa647 conjugate and scanned images (Axon 4000B) were quantified using the Genepix 6.0 software (Axon Instruments, Sunnyvale, Calif.).
Microarray images were analyzed by using GENEPIX PRO. Average values of the replicate spots of each miRNA were background subtracted, normalized, and subjected to further analysis. We performed a global median normalization of Ovary microarray data by using BRB ArrayTools developed by Richard Simon & Amy Peng Lam (29). Absent calls were thresholded to 4.5 before subsequent statistical analysis. This level is the average minimum intensity level detected in the experiments. miRNA nomenclature was according to the Genome Browser (genome.ucsc.edu) and the miRNA database at Sanger Center (microrna.sanger.ac.uk/); in case of discrepancies the miRNA database was followed. Differentially expressed miRNAs were identified by using the t test procedure within significance analysis of microarrays (SAM), a method developed at Stanford University Labs based on recent paper of Tusher, Tibshirani and Chu (30).
OVCAR3 cells were seeded at low density 48 h before treatment with 10 μM 5′aza-2′deoxycytidine (5′-AZA, Sigma). After 24 h of treatment, cells were collected and total RNA was isolated using Trizol reagent (Invitrogen). 3 replicates for both untreated cells and AZA-treated cells were used to evaluate the miR expression by Microarray profiling. Differentially expressed microRNAs were identified by using univariate two-classes T-test with random variance model.

OVCAR3 cells [2] = assay: Real-Time PCR of miR expression levels in OVCAR3 cells after demethylating treatment; settings: OVCAR3, before vs after treatment; FIG. 5C
Description: Relative expression was calculated using the comparative Ct method.

OVCAR3 cells [3] = assay: Northern blot of miR-21 in OVCAR3 cells after demethylating treatment; settings: OVCAR3, before vs after treatment; FIG. 5D
Description: Northern blot analysis was performed as previously described. RNA samples (10 μg each) were run on 15% Polyacrylamide, 7M Urea Criterion pre-casted gels (Bio-Rad, Hercules, Calif.) and transferred onto Hybond-N+ membranes (Amersham, Piscataway, N.J.). The hybridization was performed at 370 C in ULTRAhyb-Oligo hybrization buffer (Ambion, Austin, Tex.) for 16 hours. Membranes were washed at 370 C, twice with 2×SSPE and 0.5% SDS. 5S RNA or EtBr gel staining were used to normalize 200 ng of each probe was end labeled with 100 μCi [gamma-32P]-ATP using the polynucleotide kinase (Roche). Blots were stripped in boiling 0.1% SDS for 10 minutes before re-hybridization. OVCAR3 cells were seeded at low density 48 h before treatment with 10 μM 5′aza-2′deoxycytidine (5′-AZA, Sigma). After 24 h of treatment, cells were collected and total RNA was isolated using Trizol reagent (Invitrogen).

[4] = OVCAR3, before vs after treatment, p<0.001

Nc1ncn([C@H]2C[C@H](O)[C@@H](CO)O2)c(=O)n1 [5-aza-2′-deoxycytidine]
expression of miR-21, miR-203, miR-146b, miR-205, miR-30-5p and miR-30c (OVCAR3 cells [1]; OVCAR3, before vs after treatment): most significant induced upon treatment | human microRNAs differentially expressed (number) (OVCAR3 cells [1]; [4]): 11 | human microRNAs down-modulated (number) (OVCAR3 cells [1]; [4]): 2 | human microRNAs up-modulated (number) (OVCAR3 cells [1]; [4]): 9 | levels of miR-21, miR-203 and miR-205 after demethylating treatment (OVCAR3 cells [1]; OVCAR3 cells): significantly increased | expression levels of the 5 most significantly induced miRs (Real-Time PCR) (OVCAR3 cells [2]): up-modulation | miR-21 expression (Northern Blot, normalized with EtBr gel staining) (OVCAR3 cells [3]): up-modulation
